The values below are quoted from earlier work in patent US20090226465A1, “MACROCYCLIC DEPSIPEPTIDE ANTIBODY-DRUG CONJUGATES AND METHODS” (priority 2005, published 2009).

*1 amine or outer side, *2 acyl side, *3 side chain or, on linkers, in order; H or OH if unused. Where a SMILES comes first, the peptide text is derived from it. Bridges are numbered along the chain shown (N, C = ends). [ ]: non-standard residue; d: D form. The star is where a group is joined. X1 = CC[C@H](C)[C@@H](N[*:1])[C@@H](O)CC(=O)O[C@H](C(=O)[C@H](C)C(=O)[*:2])C(C)C; NMeY = CN[C@@H](Cc1ccc(O)cc1)C(=O)O; dNMeL = CN[C@H](CC(C)C)C(=O)O; Pyruvoyl = CC(=O)C(=O)*

Data set [1] concerns panel of solid tumor cell lines. The conditions noted are these: read-out: in vitro IC50.

As to `CC[C@H](C)[C@H]1NC(=O)[C@@H](NC(=O)[C@@H](CC(C)C)N(C)C(=O)[C@@H]2CCCN2C(=O)C(C)=O)[C@@H](C)OC(=O)[C@H](Cc2ccc(OC)cc2)N(C)C(=O)[C@@H]2CCCN2C(=O)[C@H](CC(C)C)NC(=O)[C@@H](C)C(=O)[C@H](C(C)C)OC(=O)C[C@@H]1O` [Aplidin] (Pyruvoyl-P[dNMeL]T[X1]LP[NMeY](Me); ester 3-C), the “half life in plasma” value was 4 to 7 h. Also, the IC50 (commonly the concentration needed to halve the response being measured) in data set [1] was 1 to 100 nM.
